Source: article PMC7617456, “Cryptosporidium lysyl-tRNA synthetase inhibitors define the interplay between solubility and permeability required to achieve efficacy” (Science translational medicine, 2024)
Values after ≈ are worked out from the molar mass of the structure shown. “Also recorded” adds a separate entry of the source. Read-outs that look alike come from different tables or passages of the source.

Key:
[1] = tested on: C. parvum; test: microbe, parasite or virus in culture; format: cell-based, Cryptosporidium parvum; details: for EC90: HCT-8, read-out: C. parvum EC90
[2] = tested on: HepG2; test: HepG2 in vitro cytotoxicity; format: cell-based, human; details: for EC50: Homo sapiens, HepG2, cytotoxicity; for Cellular selectivity: ratio of mean HepG2/C. parvum EC50
[3] = Aqueous (kinetic) solubility by UHPLC; format: physicochemical; details: 25 °C, aqueous buffer, kinetic from dmso stock, PBS pH 7.4, UHPLC
Experimental: As previously described.(27) […]
samples were prepared by adding 5 µL stock to PBS pH 7.4 (195 µL). This solution was mixed […]
The solubility test samples were […]
vacuum ﬁ ltered (Millipore Multiscreen HTS ﬁ lter, 96-well format) to remove any undissolved […]
material. The ﬁ ltrate was analyzed for dissolved drug compound using a truncated UHPLC […]
methodology. A calibration solution was prepared for each test compound. The 10 mM stock […]
solution was diluted in DMSO to give a 500 µM solution. This was further diluted with 50:50 […]
acetonitrile:water to give a 50 µM solution. Aliquots (0.2, 2.0, and 5.0 µL) of this 50 µM solution were injected onto the UHPLC system, and the areas of the resultant peaks were […]
integrated to produce a calibration line. Aliquots of the test sample ﬁ ltrate (0.4 and 5.0 µL) […]
were injected onto the UHPLC system and the resultant test compound peak areas quantiﬁ ed […]
using the calibration line. […]

[4] = tested on: wild type C. parvum; test: NOD SCID Gamma mouse efficacy model; format: in vivo; details: for parasite shedding once treatment finished (day 14 PI) / recrudescence (day 21 PI): 10 mg/kg BID oral 7 days; for log reduction in parasite shedding / parasite reduction: 10 mg/kg twice a day oral 7 days; for minimum efficacious dose (MED): BID oral 7 days, reduces parasite burden and prevents recrudescence
Experimental: An immunocompromised mouse model of cryptosporidiosis (Fig. 1C) was selected to examine the effect of each of the fourteen tool compounds on parasite reduction in vivo. […] Treatment started on day 7 post infection (PI) and concluded on day 13 PI. Infection was determined by measuring the number of parasites shed in the fecal material by quantitative PCR (oocysts/g). Efficacy was determined by calculating the log reduction in the number of oocysts shed by treated animals after completion of compound dosing (day 14) relative to the initial parasite burden in the same group of animals before treatment began (day 7 PI). Hypothesized compound absorption by BCS class is illustrated in Fig. S3. […] No Class I or Class IV compound achieved a log reduction above 2.0 (99% parasite reduction).
Efficacy of tool compounds in the NOD SCID Gamma mouse model was assessed as previously described.([14]) Male mice aged 3-5 weeks old were used, 4 mice per group (NOD.Cg-Prkdc^scid Il2rgtm1Wjl/SzJ; purchased from Jackson Labs). Mice were infected via gavage (100,000 wild type Iowa strain C. parvum oocysts from Bunchgrass Farms). Compounds were prepared fresh daily in HPMC with DMSO (0.5% hydroxypropylmethylcellulose, 0.4% Tween 80 and 0.5% Benzyl alcohol (v/v) plus 5% DMSO) and were administered by oral gavage at the concentration indicated starting 7 days post infection. Paromomycin served as the positive control (administered at 2000 mg/kg). Fecal samples were collected on days indicated. Oocyst shedding in feces was measured using a previously validated qPCR assay.([28])

[5] = Calf tolerability study; format: in vivo; details: 15 mg/kg twice daily oral 7 days
Experimental: Calf efficacy and tolerability study
Calf tolerability study (Moredun Scientific)
A tolerability study was conducted on uninfected calves prior to efficacy studies to confirm palatability and tolerance. Starting at day 2 post birth (“Day 1”), DDD489 or DDD508 were administered to four male calves per treatment group. The test compound was dosed at 15 mg/kg (maximum volume of 20 ml per occasion; prepared in vehicle: 0.5% HPMC, 0.4% Tween 80, 0.5% Benzyl alcohol in sterile water) for a total of 7 days. Administration was by oral gavage twice daily immediately prior to milk feeds, and at least 8 hours apart (± 30 minutes). Body weight was measured on day 0 and day 7, and clinical observations were recorded twice a day during dosing. Blood samples were collected from all animals prior to the morning treatment on Day 1, then 5 (± 2) minutes, 15 (± 2) minutes, 30 (± 5) minutes, 1, 2, 4, 8 and 24 hours (± 10 minutes) post first daily dose. This sample schedule was repeated on Day 7 for the same animals. Blood samples were processed to plasma. […]

[6] = Mouse pharmacokinetics; details: for AUC / Vd / half-life / Cmax / Tmax / bioavailability: female, BALB/C, whole blood; for AUC / Vd / half-life / Cmax / Tmax / bioavailability / Clb: mouse; for CLB: mouse IV 3 mg/kg, clearance in blood; for Clb: percent of liver blood flow; for mean free (unbound) drug concentration relative to EC90: uninfected mice, 10 mg/kg oral single dose
Experimental: Uninfected mice were administered a single oral (10 mg/kg) dose of either DDD489 or DDD508 using the same formulation and dose concentration as for the efficacy study. Blood samples were collected at various time points after drug administration (15, 30, 60, 120, 180, 240, and 480 minutes) and analyzed to produce a concentration-time plot of unbound drug concentration (Fig. 3). […]
Mouse pharmacokinetics (Dundee)
As previously described.(27)
Test compound was dosed as a bolus solution intravenously (IV) at 3mg/kg (dose volume: 5 mL/kg; dose vehicle: 10% DMSO; 40% PEG 400; 50% Milli-Q water) or dosed orally (PO) by gavage as a suspension at 10mg/kg (dose volume: 10 mL/kg; dose vehicle: 1% CMC to female BALB/C mice (n = 3/dose route). Blood samples were taken from each mouse at 5, 15, 30 min, 1, 2, 4, 6, 8 h mixed with nine volumes of Milli-Q water and stored frozen until UPLC/MS/MS analysis. Pharmacokinetic parameters were derived from the blood concentration-time curve using PK solutions software v2.0 (Summit Research Services, USA).

[7] = tested on: KRS-A309L; test: Transgenic C. parvum NanoLuciferase drug sensitivity assay, KRS-A309L; format: cell-based; details: Cryptosporidium parvum, HCT-8, 48 h, read-out: EC50, KRS-A309L
[8] = tested on: P-gp (MDR1); test: in vitro; details: dog, MDCK-MDR1
[9] = Liver microsomal intrinsic clearance, bovine; format: in vitro ADME; details: bovine liver microsomes
[10] = Plasma protein binding, mouse; format: in vitro ADME; details: mouse PPB assay, read-out: fraction unbound (fu)
[11] = Plasma protein binding, human; format: in vitro ADME; details: read-out: PPB (h) (converted)
[12] = tested on: C. hominis; test: C. hominis growth inhibition in HCT-8 co-culture (image-based); details: Cryptosporidium hominis, HCT-8, 48 h, read-out: C. hominis EC50
Experimental: Cryptosporidium in vitro inhibition (Vermont and Dundee)
Compounds were prepared in 100% DMSO and added at the time of infection (NLuc) or 3 hours post infection (imaging assays). Compounds were prepared at 1% final concentration DMSO in culture. Parasites were quantified at 48 hours post infection. NanoLuciferase was measured using a GloMax Discovery, Promega.
A Nikon Ecl ipse Ti2000 epifluorescence microscope with an automated stage was programmed to focus on the center of each well and take a 3×3 composite image using an EXi blue fluorescence microscopy camera (QImaging) with a 20X objective (NA = 0.45). Nuclei and parasite images were separately exported as .tif files, and parasites and host cells were counted using custom NIH ImageJ macros as reported previously.(29) Dose−response curves were

[13] = Cryptosporidium parvum, HCT-8, 48 h, read-out: C. parvum EC50, co-cultured with HCT-8 cells for 48 hrs
[14] = read-out: C. parvum EC50, co-cultured with HCT-8 cells for 48 hrs

SMILES	EC50 [1, 13]	EC90 ([1]; Cryptosporidium parvum)	EC50 [1, 14]	EC50 [2]	Cellular selectivity [2]	solubility at 24 h [3]	parasite shedding once treatment finished (day 14 PI) [4]	recrudescence (day 21 PI) [4]	log reduction in parasite shedding [4]	parasite reduction [4]	minimum efficacious dose (MED) [4]	tolerability in uninfected calves [5]	AUC ([6]; iv, 3 mg/kg)	Vd ([6]; iv, 3 mg/kg)	half-life ([6]; iv, 3 mg/kg)	AUC ([6]; po, 10 mg/kg)	Cmax ([6]; po, 10 mg/kg)	Tmax ([6]; po, 10 mg/kg)	bioavailability ([6]; po, 10 mg/kg)	CLB [6]	also measured
Nc1nc2c(c(C(F)(F)F)n1)C(=O)N(CC1CCCC(C(F)(F)F)C1)C2 (stereo not drawn) [DDD489]	43 nM	100 nM	40 nM	18000 nM	450 fold	21 µM (≈ 8.03 µg/mL)	reduces parasite shedding to the level of detection	unable to prevent recrudescence; also recorded: does not prevent recrudescence	> 2.8 log	> 99.8%	30 mg/kg	well tolerated	2280 ng·h/mL	2.8 L/kg	90 min	517 ng·h/mL	200 ng/mL	60 min	7%	22 mL/min/kg	recrudescence at day 21 PI ([4]; 50 mg/kg BID oral 7 days): prevents; Clb [6]: 17 % LBF; mean free (unbound) drug concentration relative to EC90 [6]: remained below the EC90; EC50 [7]: 8630 nM; efflux ratio [8]: 1.3; Mics CLi (b) [9]: 25 mL/min/g; fraction unbound [10]: 0.16; fraction unbound [11]: 0.23; EC50 [12]: 40 nM
O=C(NCC1(O)CCCCC1)c1cc(=O)c2cc(O)ccc2o1 [DDD508]	132 nM	380 nM	130 nM	18000 nM	140 fold	184 µM (≈ 58.4 µg/mL)	parasite shedding to the level of detection	unable to prevent recrudescence	> 2.8 log	> 99.8%	30 mg/kg	well tolerated	1480 ng·h/mL	1.8 L/kg	36 min	267 ng·h/mL	200 ng/mL	15 min	6%	34 mL/min/kg	Clb [6]: 27 % LBF; mean free (unbound) drug concentration relative to EC90 [6]: remained below the EC90; EC50 [7]: 9930 nM; efflux ratio [8]: 9.5; Mics CLi (b) [9]: < 0.5 mL/min/g; fraction unbound [10]: 0.6; fraction unbound [11]: 0.42; EC50 [12]: 100 nM
